Laboratory results published in ChEMBL document CHEMBL5346922, “Discovery of phenylcarbamoyl xanthone derivatives as potent neuroprotective agents for treating ischemic stroke” (Eur J Med Chem, 2023).
Activity calls are given as the source filed them. The rule behind the calls is not given here.

Legend:
[1] = system: PC-12; assay: Neuroprotective activity against glutamate induced excitotoxicity in rat PC12 cells assessed as cell survival at 20 uM pretreated with glutamate for 24 hrs followed by compound addition and measured after 24 hrs; format: functional; settings: read-out: Survival
[2] = system: PC-12; assay: Neuroprotective activity in rat PC12 cells assessed as protection against glutamate induced excitotoxicity at 20 uM pretreated with glutamate for 24 hrs followed by compound addition and measured after 24 hrs; format: functional
[3] = system: PC-12; assay: Neuroprotective activity against H2O2-induced oxidative damage in rat PC12 cells assessed as increase in cell survival at 20 uM pretreated with H2O2 for 24 hrs followed by compound addition and measured after 24 hrs; format: functional; settings: read-out: Survival
[4] = system: PC-12; assay: Neuroprotective activity against H2O2-induced oxidative damage in rat PC12 cells at 20 uM pretreated with H2O2 for 24 hrs followed by compound addition and measured after 24 hrs; format: functional
[5] = system: PC-12; assay: Neuroprotective activity against glutamate induced excitotoxicity in rat PC12 cells pretreated with glutamate for 24 hrs followed by compound addition and measured after 24 hrs; format: functional, cell-based
[6] = system: PC-12; assay: Neuroprotective activity against H2O2-induced oxidative damage in rat PC12 cells pretreated with H2O2 for 24 hrs followed by compound addition and measured after 24 hrs; format: functional, cell-based
[7] = system: PC-12; assay: Cytotoxicity against rat PC12 cells assessed as reduction in cell viability incubated for 24 hrs by MTT assay; format: functional, cell-based

Row | SMILES | viability at 20 µM [1] [%] | Activity [2] [%] | viability at 20 µM [3] [%] | Activity [4] [%] | EC50 [5] [µM] | EC50 [6] [µM] | Activity [7]
1 | COc1c(OC(=O)N(C)c2ccc(C)cc2)cc2oc3cc4c(c(O)c3c(=O)c2c1CC=C(C)C)C=CC(C)(C)O4 | 50.7 | 29.08 | 63 | 17.03 |  |  | 
2 | COc1ccccc1N(C)C(=O)Oc1cc2oc3cc4c(c(O)c3c(=O)c2c(CC=C(C)C)c1OC)C=CC(C)(C)O4 | 48.4 | 25.79 | 61.6 | 13.94 |  |  | 
3 | COc1c(OC(=O)N(C)c2cccc(C)c2)cc2oc3cc4c(c(O)c3c(=O)c2c1CC=C(C)C)C=CC(C)(C)O4 | 57.6 | 39.04 | 66.8 | 25.7 |  |  | 
4 | CCc1ccc(N(C)C(=O)Oc2cc3oc4cc5c(c(O)c4c(=O)c3c(CC=C(C)C)c2OC)C=CC(C)(C)O5)cc1 | 50.8 | 29.26 | 65.5 | 22.79 |  |  | 
5 | CCc1cccc(N(C)C(=O)Oc2cc3oc4cc5c(c(O)c4c(=O)c3c(CC=C(C)C)c2OC)C=CC(C)(C)O5)c1 | 56.3 | 37.14 | 60.7 | 11.9 |  |  | 
6 | COc1c(OC(=O)N(C)c2cccc(F)c2)cc2oc3cc4c(c(O)c3c(=O)c2c1CC=C(C)C)C=CC(C)(C)O4 | 67.8 | 53.62 | 60.9 | 12.46 | 19.7 |  | 
7 | COc1c(OC(=O)N(C)c2ccc(C(C)(C)C)cc2)cc2oc3cc4c(c(O)c3c(=O)c2c1CC=C(C)C)C=CC(C)(C)O4 | 38.9 | 12.14 | 63.6 | 18.35 |  |  | 
8 | COc1c(OC(=O)N(CC2CC2)c2cccc(C)c2)cc2oc3cc4c(c(O)c3c(=O)c2c1CC=C(C)C)C=CC(C)(C)O4 | 54.9 | 35.08 | 73 | 39.49 |  |  | 
9 | COc1c(OC(=O)N(C)c2cccc(C)c2)cc2oc3cc4c(c(OC)c3c(=O)c2c1CC=C(C)C)C=CC(C)(C)O4 | 57.5 | 38.81 | 62.3 | 15.51 |  |  | 
10 | COc1c(OC(=O)N(C)c2ccccc2)cc2oc3cc4c(c(OCc5ccc(C(F)(F)F)cc5)c3c(=O)c2c1CC=C(C)C)C=CC(C)(C)O4 | 35 | 6.46 | 60.9 | 12.35 |  |  | 
11 | COc1c(OC(=O)N(C)c2ccc(F)cc2)cc2oc3cc4c(c(O)c3c(=O)c2c1CC=C(C)C)C=CC(C)(C)O4 | 67.2 | 52.82 | 74.7 | 43.32 | 21.3 | 28.8 | 
12 | COc1c(OC(=O)N(CC2CC2)c2ccc(C)cc2)cc2oc3cc4c(c(O)c3c(=O)c2c1CC=C(C)C)C=CC(C)(C)O4 | 64 | 48.26 | 69 | 30.57 |  |  | 
13 | CCc1ccccc1N(C)C(=O)Oc1cc2oc3cc4c(c(O)c3c(=O)c2c(CC=C(C)C)c1OC)C=CC(C)(C)O4 | 55.1 | 35.36 | 63.1 | 17.35 |  |  | 
14 | COc1c(OC(=O)N(CC2CC2)c2cccc(Cl)c2)cc2oc3cc4c(c(O)c3c(=O)c2c1CC=C(C)C)C=CC(C)(C)O4 | 62.9 | 46.68 | 75.9 | 45.94 |  | 26.2 | 
15 | COc1c(OC(=O)N(C)c2ccc(C)cc2)cc2oc3cc4c(c(OC)c3c(=O)c2c1CC=C(C)C)C=CC(C)(C)O4 | 49.1 | 26.81 | 70.2 | 33.3 |  |  | 
16 | COc1c(OC(=O)N(C)c2ccccc2)cc2oc3cc4c(c(OC)c3c(=O)c2c1CC=C(C)C)C=CC(C)(C)O4 | 62.7 | 46.32 | 70.9 | 34.72 |  |  | 
17 | COc1cccc(N(C)C(=O)Oc2cc3oc4cc5c(c(O)c4c(=O)c3c(CC=C(C)C)c2OC)C=CC(C)(C)O5)c1 | 52.6 | 31.84 | 59.6 | 9.57 |  |  | 

Row | SMILES | viability at 20 µM [1] [%] | Activity [2] [%] | viability at 20 µM [3] [%] | Activity [4] [%] | EC50 [5] [µM] | EC50 [6] [µM] | Activity [7]
18 | COc1ccc(N(C)C(=O)Oc2cc3oc4cc5c(c(O)c4c(=O)c3c(CC=C(C)C)c2OC)C=CC(C)(C)O5)cc1 | 49.2 | 26.88 | 62.5 | 16 |  |  | 
19 | CC1=NN(c2ccccc2)C(=O)C1 [EDARAVONE] |  |  | 80.5 | 56.36 |  |  | 
20 | COc1c(OC(=O)N(C)c2ccccc2C)cc2oc3cc4c(c(O)c3c(=O)c2c1CC=C(C)C)C=CC(C)(C)O4 | 55.7 | 36.26 | 66.8 | 25.55 |  |  | 
21 | COc1c(OC(=O)N(C)c2ccccc2F)cc2oc3cc4c(c(O)c3c(=O)c2c1CC=C(C)C)C=CC(C)(C)O4 | 60.9 | 43.78 | 70.9 | 34.69 |  |  | 
22 | COc1c(OC(=O)N(CC2CC2)c2ccccc2C)cc2oc3cc4c(c(O)c3c(=O)c2c1CC=C(C)C)C=CC(C)(C)O4 | 30.5 | 0 | 60.6 | 11.7 |  |  | 
23 | COc1c(OC(=O)N(C)c2cccc(Br)c2)cc2oc3cc4c(c(O)c3c(=O)c2c1CC=C(C)C)C=CC(C)(C)O4 | 33.1 | 3.74 | 57.7 | 5.11 |  |  | 
24 | CCOc1cccc(N(C)C(=O)Oc2cc3oc4cc5c(c(O)c4c(=O)c3c(CC=C(C)C)c2OC)C=CC(C)(C)O5)c1 | 43.7 | 18.96 | 59.1 | 8.38 |  |  | 
25 | COc1c(OC(=O)N(CC2CC2)c2cccc(F)c2)cc2oc3cc4c(c(O)c3c(=O)c2c1CC=C(C)C)C=CC(C)(C)O4 | 69.2 | 55.65 | 74.4 | 42.67 | 17.3 | 24.8 | 
26 | COc1c(OC(=O)N(CC2CC2)c2ccccc2)cc2oc3cc4c(c(O)c3c(=O)c2c1CC=C(C)C)C=CC(C)(C)O4 | 68 | 53.91 | 74.2 | 42.11 | 20.9 | 29.2 | 
27 | COc1c(OC(=O)N(CC2CC2)c2cccc(Br)c2)cc2oc3cc4c(c(O)c3c(=O)c2c1CC=C(C)C)C=CC(C)(C)O4 | 46.5 | 23.09 | 63.2 | 17.48 |  |  | 
28 | COc1c(OC(=O)N(C)c2cccc(Cl)c2)cc2oc3cc4c(c(OC)c3c(=O)c2c1CC=C(C)C)C=CC(C)(C)O4 | 36 | 7.91 | 68 | 28.17 |  |  | 
29 | COc1c(OC(=O)N(C)c2ccccc2C)cc2oc3cc4c(c(OC)c3c(=O)c2c1CC=C(C)C)C=CC(C)(C)O4 | 52.3 | 31.44 | 69.3 | 31.11 |  |  | 
30 | COc1c(OC(=O)N(C)c2ccccc2)cc2oc3c(CN4CCN(C)CC4)c4c(c(O)c3c(=O)c2c1CC=C(C)C)C=CC(C)(C)O4 |  |  |  |  |  |  | Active
31 | COc1c(OC(=O)N(C)c2ccccc2)cc2oc3cc4c(c(OCc5ccc(F)cc5)c3c(=O)c2c1CC=C(C)C)C=CC(C)(C)O4 | 31 | 0.01 | 65.5 | 22.59 |  |  | 
32 | COc1c(OC(=O)N(C)c2cccc(Cl)c2)cc2oc3cc4c(c(O)c3c(=O)c2c1CC=C(C)C)C=CC(C)(C)O4 | 31.6 | 1.57 | 58.2 | 6.23 |  |  | 
33 | CCN(C(=O)Oc1cc2oc3cc4c(c(O)c3c(=O)c2c(CC=C(C)C)c1OC)C=CC(C)(C)O4)c1ccccc1 | 57 | 38.13 | 65.1 | 21.74 |  |  | 
